Assay results reported in ChEMBL document CHEMBL4765381, “Neuropeptide FF and Its Receptors: Therapeutic Applications and Ligand Development” (J Med Chem, 2020).
Values belong to the compound of their own block, whether it stands above or below them. Square brackets hold non-standard residues; d marks the D form. Peptide text beside a SMILES is read from it. * marks the point of attachment. Desaminotyrosyl = O=C(CCc1ccc(O)cc1)*; Tic = O=C(O)[C@@H]1Cc2ccccc2CN1

Experiments:
Mus musculus = test: Reversal of morphine-induced analgesia in icv dosed CDF1 mouse assessed as minimum effective dose measured after 15 mins by tail-flick test; type: functional; settings: 0.25 h
[1] = Displacement of [125I][Tyr1]-NPFF from NPFF receptor in rat spinal cord membranes by Cheng-Prusoff analysis; type: cell membranes, Membrane
[2] = Displacement of [125I]-1DMe from NPFF receptor in Sprague-Dawley rat dorsal horn of spinal cord incubated for 150 mins by autoradiography; type: tissue-based
[3] = biological target: T1, Prolactin-releasing peptide receptor (Homo sapiens, UniProt P49683); test: Displacement of [3H]-PrRP-20 from human PrRP receptor expressed in CHO cell membrane by TopCount scintillation counter method; type: cell membranes
T1 sequence (P49683 whole entry): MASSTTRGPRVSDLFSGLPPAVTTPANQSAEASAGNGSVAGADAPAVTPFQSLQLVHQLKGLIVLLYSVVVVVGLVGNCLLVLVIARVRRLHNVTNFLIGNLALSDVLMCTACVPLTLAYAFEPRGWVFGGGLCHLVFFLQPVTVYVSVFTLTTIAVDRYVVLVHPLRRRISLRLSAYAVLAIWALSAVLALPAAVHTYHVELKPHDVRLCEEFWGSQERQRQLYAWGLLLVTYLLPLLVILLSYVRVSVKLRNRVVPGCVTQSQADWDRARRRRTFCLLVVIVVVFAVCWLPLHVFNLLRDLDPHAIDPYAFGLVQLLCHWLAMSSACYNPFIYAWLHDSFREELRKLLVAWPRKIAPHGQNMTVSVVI

KiSS-1 receptor = KiSS-1 receptor (Homo sapiens, UniProt Q969F8); test: Displacement of [125I]-Kp-10 from human KISS1R expressed in CHO cell membrane by TopCount scintillation counter method; type: cell membranes
[4] = biological target: T2, Pyroglutamylated RF-amide peptide receptor (Homo sapiens, UniProt Q96P65); test: Displacement of [125I]-43RFa from human QRFP receptor expressed in CHO cell membrane by TopCount scintillation counter method; type: cell membranes
T2 sequence (Q96P65 whole entry): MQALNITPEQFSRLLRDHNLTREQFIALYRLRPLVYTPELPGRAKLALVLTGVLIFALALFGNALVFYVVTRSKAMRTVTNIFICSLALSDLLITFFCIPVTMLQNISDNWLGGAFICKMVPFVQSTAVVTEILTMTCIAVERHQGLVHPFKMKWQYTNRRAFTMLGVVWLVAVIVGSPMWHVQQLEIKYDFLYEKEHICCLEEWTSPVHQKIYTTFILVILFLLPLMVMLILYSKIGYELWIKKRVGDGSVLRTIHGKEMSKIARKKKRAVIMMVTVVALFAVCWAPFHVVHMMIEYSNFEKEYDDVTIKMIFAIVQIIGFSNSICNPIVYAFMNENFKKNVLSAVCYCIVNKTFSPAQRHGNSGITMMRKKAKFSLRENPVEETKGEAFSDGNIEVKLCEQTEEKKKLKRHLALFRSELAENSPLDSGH

[5] = Binding affinity to NPFFR in rat spinal cord; type: tissue-based
[6] = biological target: T3, Neuropeptide FF receptor 2 (Homo sapiens, UniProt Q9Y5X5); test: Antagonist activity at human NPFFR2 expressed in CHO-K1 cells assessed as apparent dissociation constant Ke by Eu-cAMP tracer based TR-FRET assay; type: functional, cell-based; settings: filed as antagonist
[7] = biological target: T4, Neuropeptide FF receptor 1 (Homo sapiens, UniProt Q9GZQ6); test: Antagonist activity at human NPFFR1 expressed in CHO-K1 cells assessed as apparent dissociation constant Ke by Eu-cAMP tracer based TR-FRET assay; type: functional, cell-based; settings: filed as antagonist
[8] = biological target: T4, Neuropeptide FF receptor 1; test: Displacement of [125I]NPFF from human NPFFR1 expressed in CHO cell membranes incubated for 120 mins by scintillation/luminescence counting method; parameters: species or system Membrane
[9] = biological target: T4, Neuropeptide FF receptor 1; test: Antagonist activity at human NPFFR1 expressed in CHO-RD-HGA16 cells assessed as reduction in NPFF-induced calcium influx by measuring apparent dissociation constant Ke preincubated for 15 mins followed by NPFF addition by calcium-5 dye based fluorescence method; type: functional, cell-based; settings: CHO/Galpha16, filed as antagonist
[10] = biological target: T3, Neuropeptide FF receptor 2; test: Antagonist activity at human NPFFR2 expressed in CHO-RD-HGA16 cells assessed as reduction in NPFF-induced calcium influx by measuring apparent dissociation constant Ke preincubated for 15 mins followed by NPFF addition by calcium-5 dye based fluorescence method; type: functional, cell-based; settings: CHO/Galpha16, filed as antagonist
[11] = biological target: T3, Neuropeptide FF receptor 2; test: Displacement of [125I]NPFF from human NPFFR2 expressed in CHO cell membranes incubated for 120 mins by scintillation/luminescence counting method; parameters: species or system Membrane
[12] = biological target: Neuropeptide FF receptor 1 (Rattus norvegicus, UniProt Q9EP86); test: Displacement of [125I](Tyr)NPF from rat NPFFR1 expressed in rat PC12 cells incubated for 1 hr; type: cell-based, PC-12
[13] = biological target: T3, Neuropeptide FF receptor 2; test: Agonist activity at human NPFFR2 expressed in CHO cells assessed as stimulation of [35S]-GTPgammaS binding preincubated for 30 mins followed by [35S]-GTPgammaS stimulation and measured after 30 mins by scintillation counting method; type: functional, cell-based
[14] = biological target: T3, Neuropeptide FF receptor 2; settings: COS-1, filed as antagonist, dose 7.5 µM, time 30.0 min
[15] = biological target: T4, Neuropeptide FF receptor 1; test: Displacement of [125I]YVP from human NPFFR1 expressed in CHO cells; type: cell-based
[16] = biological target: T3, Neuropeptide FF receptor 2; test: Displacement of [125I]Tyr-NPFF from human NPFFR2 expressed in green monkey Cos-1 cells; type: cell-based
[17] = biological target: T3, Neuropeptide FF receptor 2; test: Displacement of TAMRA-NPFF from human NPFFR2 expressed in CHO-K1 cells preincubated for 15 mins followed by GTPgammaS addition and measured after 15 to 120 mins by competitive binding assay; type: cell-based
[18] = biological target: T3, Neuropeptide FF receptor 2; test: Agonist activity at human NPFFR2 expressed in CHO cells assessed as inhibition of forskolin-induced intracellular cAMP production incubated for 5 hrs by firefly/renilla luciferase reporter assay; type: functional, cell-based

T4 sequence (Q9GZQ6 whole entry): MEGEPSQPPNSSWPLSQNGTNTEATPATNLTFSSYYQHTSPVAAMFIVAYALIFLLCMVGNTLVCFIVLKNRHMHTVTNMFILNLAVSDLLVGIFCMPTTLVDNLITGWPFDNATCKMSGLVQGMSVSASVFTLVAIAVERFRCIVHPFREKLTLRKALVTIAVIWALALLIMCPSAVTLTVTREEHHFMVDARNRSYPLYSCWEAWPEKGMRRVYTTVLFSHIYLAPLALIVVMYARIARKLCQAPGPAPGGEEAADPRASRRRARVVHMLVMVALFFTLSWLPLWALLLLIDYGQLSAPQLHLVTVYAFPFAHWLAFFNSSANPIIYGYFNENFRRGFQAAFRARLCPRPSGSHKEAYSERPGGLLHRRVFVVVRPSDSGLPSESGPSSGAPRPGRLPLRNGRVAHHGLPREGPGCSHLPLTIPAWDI
T3 sequence (Q9Y5X5 whole entry): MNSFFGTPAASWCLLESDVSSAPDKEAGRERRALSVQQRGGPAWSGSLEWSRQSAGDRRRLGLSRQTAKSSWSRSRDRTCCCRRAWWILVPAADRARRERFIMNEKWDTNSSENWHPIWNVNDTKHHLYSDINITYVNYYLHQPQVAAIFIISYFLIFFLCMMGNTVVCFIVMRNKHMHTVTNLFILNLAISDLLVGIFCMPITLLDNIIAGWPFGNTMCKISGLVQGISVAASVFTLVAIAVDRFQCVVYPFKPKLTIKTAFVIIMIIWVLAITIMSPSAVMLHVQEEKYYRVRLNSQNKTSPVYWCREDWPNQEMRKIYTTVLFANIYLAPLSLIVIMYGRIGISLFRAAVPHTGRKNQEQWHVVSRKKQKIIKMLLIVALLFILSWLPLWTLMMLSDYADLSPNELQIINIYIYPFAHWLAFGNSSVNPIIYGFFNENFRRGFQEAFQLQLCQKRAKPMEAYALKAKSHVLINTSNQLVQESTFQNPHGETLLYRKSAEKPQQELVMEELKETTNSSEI
Neuropeptide FF receptor 1 (Rattus norvegicus, UniProt Q9EP86), sequence (Q9EP86 whole entry): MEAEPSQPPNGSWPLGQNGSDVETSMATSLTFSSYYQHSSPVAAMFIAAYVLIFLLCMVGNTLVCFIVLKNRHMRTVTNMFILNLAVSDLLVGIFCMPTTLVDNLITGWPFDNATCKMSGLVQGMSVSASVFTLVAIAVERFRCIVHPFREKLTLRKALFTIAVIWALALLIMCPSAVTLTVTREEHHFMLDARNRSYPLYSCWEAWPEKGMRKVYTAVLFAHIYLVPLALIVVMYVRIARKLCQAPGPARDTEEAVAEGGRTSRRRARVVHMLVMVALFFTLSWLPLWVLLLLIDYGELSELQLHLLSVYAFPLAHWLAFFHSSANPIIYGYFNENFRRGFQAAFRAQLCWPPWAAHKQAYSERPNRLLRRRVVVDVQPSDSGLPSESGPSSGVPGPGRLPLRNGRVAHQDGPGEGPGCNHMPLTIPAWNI
KiSS-1 receptor, sequence (Q969F8 whole entry): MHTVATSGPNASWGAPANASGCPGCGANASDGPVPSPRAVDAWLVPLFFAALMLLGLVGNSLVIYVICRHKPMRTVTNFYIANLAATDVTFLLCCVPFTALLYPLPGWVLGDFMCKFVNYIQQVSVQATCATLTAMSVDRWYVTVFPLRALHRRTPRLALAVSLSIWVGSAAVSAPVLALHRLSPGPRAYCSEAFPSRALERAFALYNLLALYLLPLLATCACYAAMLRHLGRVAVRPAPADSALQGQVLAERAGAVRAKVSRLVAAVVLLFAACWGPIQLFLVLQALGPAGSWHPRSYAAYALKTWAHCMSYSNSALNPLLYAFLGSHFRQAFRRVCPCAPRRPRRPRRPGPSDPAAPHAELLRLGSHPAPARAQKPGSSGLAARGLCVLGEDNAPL

Structure (SMILES): CC(C)C[C@H](NC(=O)[C@@H](N)Cc1ccccc1)C(=O)N[C@@H](Cc1ccccc1)C(=O)N[C@@H](CCC(N)=O)C(=O)N1CCC[C@H]1C(=O)N[C@@H](CCC(N)=O)C(=O)N[C@@H](CCCN=C(N)N)C(=O)N[C@@H](Cc1ccccc1)C(N)=O
MEC (Mus musculus): 22 nmol
Ki [2]: 0.34 nM

Structure (SMILES): NC(N)=N/N=C/c1ccc(Cl)c(Cl)c1
Ki [3]: > 5000 nM
Ki (KiSS-1 receptor): > 5000 nM
Ki [4]: > 5000 nM

Structure (SMILES): CC(C)C[C@H](NC(=O)[C@@H](N)Cc1ccccc1)C(=O)N[C@@H](Cc1ccccc1)C(=O)N[C@@H](CCC(N)=O)C(=O)NCC(=O)N[C@@H](CCC(N)=O)C(=O)N[C@@H](CCCN=C(N)N)C(=O)N[C@@H](Cc1ccccc1)C(N)=O (H-FLFQGQRF-NH2)
MEC (Mus musculus): 8.8 nmol
Ki [1]: 1.2 nM

Structure (SMILES): N=C(N)NCCC[C@H](NC(=O)C12CC3CC(CC(C3)C1)C2)C(=O)N[C@@H](Cc1ccccc1)C(N)=O
Ke [14]: 45 nM

Structure (SMILES): NC(=O)CC[C@H](NC(=O)[C@@H]1CCCN1)C(=O)N[C@@H](CCCN=C(N)N)C(=O)N[C@@H](Cc1ccccc1)C(N)=O
Ki [2]: 15.5 nM

Now from value to compound, other results behind:

Ki [1]: 0.2 nM
Structure (SMILES): CC(C)C[C@H](NC(=O)[C@@H](N)Cc1ccc(O)cc1)C(=O)N[C@@H](Cc1ccccc1)C(=O)N[C@@H](CCC(N)=O)C(=O)N1CCC[C@H]1C(=O)N[C@@H](CCC(N)=O)C(=O)N[C@@H](CCCN=C(N)N)C(=O)N[C@@H](Cc1ccccc1)C(N)=O (H-YLFQPQRF-NH2)
MEC (Mus musculus): 8.8 nmol

Ki [5]: 0.2 nM
Structure (SMILES): CC(C)C[C@H](NC(=O)[C@H](Cc1ccccc1)NC(=O)CCc1ccc(O)cc1)C(=O)N[C@@H](Cc1ccccc1)C(=O)N[C@@H](CCC(N)=O)C(=O)N1CCC[C@H]1C(=O)N[C@@H](CCC(N)=O)C(=O)N[C@@H](CCCN=C(N)N)C(N)=O (Desaminotyrosyl-FLFQPQR-NH2)

Ke [6]: 1.17 µM
Ke [7]: 0.49 µM
Ki [8]: 610 nM
Ke [9]: 0.25 µM
Ke [10]: 0.69 µM
Ki [11]: 1670 nM
Structure (SMILES): COc1ccc(CN[C@H]2C[C@@H](C(=O)OCCc3ccc([N+](=O)[O-])cc3)N(Cc3ccccc3Cl)C2)cc1

IC50 [12]: 0.1 nM
Ki [12]: 101 nM
EC50 [13]: 2400 nM
Structure (SMILES): N=C(N)NCCC[C@H](NC(=O)[C@H](Cc1ccccc1)NC(=O)[C@@H]1CCCN1)C(=O)N1Cc2ccccc2C[C@H]1C(N)=O (H-PFR[Tic]-NH2)

Ki [15]: 12 nM
Ki [16]: 461 nM
Structure (SMILES): NC(N)=NCCC[C@H](NC(=O)C(c1ccccc1)c1ccccc1)C(=O)NCc1ccc(O)cc1

Ki [17]: 1.42 nM
EC50 [18]: 1470 nM
Structure (SMILES): COc1cc2c(c(OC)c1OC)-c1c(cc(C)c(C)c1OC)[C@@H](C(=O)Oc1ccccc1)[C@@](C)(O)[C@@H](C)C2
